Results published in US20100075965A1, “PI3 KINASE INHIBITORS AND METHODS OF THEIR USE” (Novartis AG, priority 2006, published 2010).
pEC50, pIC50: −log10 of the molar value.

How the values were obtained:
A2780 cells = test: Viability assay in A2780 (Cell Titer Glo); format: cell-based, human; settings: Homo sapiens; A2780 cells; read-out: A2780 Cell prolif. EC50
Outline: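 A2780 cells (1,000/well, DMEM + 10% FBS) were exposed to 3-fold serial dilutions of compound for 72 hrs at 37° C, 5% CO2. Viable cells were read by Cell Titer Glo luminescence, in duplicate, and EC50 values were derived from the curves.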

PI3 K Alpha = PI3 K Alpha (Homo sapiens, UniProt P42336); test: PI3 kinase phosphorylation assays (homogenous solution phase, one step solid phase, ATP depletion/KinaseGlo); format: biochemical; settings: read-out: PI3K Alpha IC50
Sequence of PI3 K Alpha (P42336 whole entry): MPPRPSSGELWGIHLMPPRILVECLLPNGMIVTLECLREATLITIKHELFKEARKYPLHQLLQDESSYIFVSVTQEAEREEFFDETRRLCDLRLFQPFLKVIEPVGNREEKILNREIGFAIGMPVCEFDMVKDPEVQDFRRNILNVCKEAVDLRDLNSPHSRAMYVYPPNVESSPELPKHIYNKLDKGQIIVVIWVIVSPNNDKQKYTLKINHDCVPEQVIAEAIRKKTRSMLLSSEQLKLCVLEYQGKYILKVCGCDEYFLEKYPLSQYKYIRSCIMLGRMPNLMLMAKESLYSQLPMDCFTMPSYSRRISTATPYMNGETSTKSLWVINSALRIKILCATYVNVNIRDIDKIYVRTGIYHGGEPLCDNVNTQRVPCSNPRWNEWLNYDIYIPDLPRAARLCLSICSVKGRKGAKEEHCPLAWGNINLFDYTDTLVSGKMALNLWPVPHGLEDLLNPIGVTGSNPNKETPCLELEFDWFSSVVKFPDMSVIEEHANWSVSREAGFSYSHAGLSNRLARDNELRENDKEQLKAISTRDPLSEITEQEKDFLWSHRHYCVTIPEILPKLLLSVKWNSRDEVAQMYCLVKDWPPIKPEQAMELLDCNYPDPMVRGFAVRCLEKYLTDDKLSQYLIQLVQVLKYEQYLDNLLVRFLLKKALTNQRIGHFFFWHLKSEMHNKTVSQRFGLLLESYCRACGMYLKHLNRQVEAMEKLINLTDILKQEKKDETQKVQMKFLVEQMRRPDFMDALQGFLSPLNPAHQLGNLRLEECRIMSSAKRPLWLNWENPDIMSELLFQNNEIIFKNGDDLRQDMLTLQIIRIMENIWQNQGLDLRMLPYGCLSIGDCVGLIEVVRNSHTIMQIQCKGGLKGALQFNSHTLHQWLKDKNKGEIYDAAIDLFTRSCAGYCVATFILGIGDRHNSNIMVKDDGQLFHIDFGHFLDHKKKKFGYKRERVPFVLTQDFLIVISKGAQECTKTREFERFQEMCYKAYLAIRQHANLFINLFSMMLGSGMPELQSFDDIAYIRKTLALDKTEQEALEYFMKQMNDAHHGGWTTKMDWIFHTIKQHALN
Sequence of PI3 K Alpha (P27986 whole entry partner): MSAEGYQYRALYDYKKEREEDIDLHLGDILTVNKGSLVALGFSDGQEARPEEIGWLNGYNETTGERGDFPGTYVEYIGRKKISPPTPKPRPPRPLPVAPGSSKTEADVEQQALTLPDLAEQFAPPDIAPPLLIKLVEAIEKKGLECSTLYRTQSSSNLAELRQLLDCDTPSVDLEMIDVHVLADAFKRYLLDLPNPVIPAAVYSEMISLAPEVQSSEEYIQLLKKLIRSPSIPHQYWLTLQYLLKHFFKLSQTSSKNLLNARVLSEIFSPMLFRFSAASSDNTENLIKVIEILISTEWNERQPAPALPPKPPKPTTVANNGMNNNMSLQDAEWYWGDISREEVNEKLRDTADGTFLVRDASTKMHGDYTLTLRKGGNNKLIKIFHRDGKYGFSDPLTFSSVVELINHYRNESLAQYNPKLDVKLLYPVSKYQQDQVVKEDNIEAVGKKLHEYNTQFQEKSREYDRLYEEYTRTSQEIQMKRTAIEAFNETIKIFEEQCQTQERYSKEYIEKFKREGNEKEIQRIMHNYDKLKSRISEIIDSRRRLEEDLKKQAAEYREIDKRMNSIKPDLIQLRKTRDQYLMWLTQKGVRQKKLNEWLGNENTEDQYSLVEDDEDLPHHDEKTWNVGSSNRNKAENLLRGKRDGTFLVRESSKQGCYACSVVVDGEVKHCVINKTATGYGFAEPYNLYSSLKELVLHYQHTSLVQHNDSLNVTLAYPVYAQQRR

pEC50 (A2780 cells) | pIC50 (PI3 K Alpha) | SMILES
> 5.00 | > 6.00 | CC(=O)Nc1cn2cc(-c3cnc(N)c(N4CCOCC4)n3)ccc2n1 [Example 201, N-(6-(5-amino-6-morpholino-pyrazin-2-yl)imidazo[1,2-a]pyridin-2-yl)acetamide]
> 5.00 | > 6.00 | CC(C)(C)OC(=O)NCC(=O)Nc1cn2cc(-c3cnc(N)c(C(F)(F)F)c3)ccc2n1 [Example 203, tert-butyl 2-(6-(6-amino-5-(trifluoromethyl)pyridin-3-yl)imidazo[1,2-a]pyridin-2-ylamino)-2-oxoethylcarbamate]
> 5.00 | > 6.00 | CCN/N=C/c1cc(-c2ccc3nc(NC(C)=O)cn3c2)cnc1N [Example 207, (E)-N-(6-(6-amino-5-((2-ethylhydrazono)methyl)pyridin-3-yl)imidazo[1,2-a]pyridin-2-yl)acetamide]
> 5.00 | > 6.00 | CC(=O)Nc1cn2cc(-c3ccc(N)nc3F)ccc2n1 [Example 210, N-(6-(6-amino-2-fluoropyridin-3-yl)imidazo[1,2-a]pyridin-2-yl)acetamide]
> 5.00 | > 6.00 | CC(=O)Nc1cn2nc(-c3cnc(N)c(C(=O)NCCN4CCCC4)c3)ccc2n1 [Example 211, 5-(2-acetamido-imidazo[1,2-b]pyridazin-6-yl)-2-amino-N-(2-(pyrrolidin-1-yl)ethyl) nicotinamide]
> 5.00 | > 6.00 | COc1ccccc1-c1cc(-c2ccc3nc(NC(C)=O)cn3n2)cnc1N [Example 212, N-(6-(6-amino-5-(2-methoxyphenyl)pyridin-3-yl)imidazo[1,2-b]pyridazin-2-yl)acetamide]
> 5.00 | > 6.00 | Nc1ncc(-c2ccc3nc(NC(=O)CO[C@@H]4CCNC4)cn3c2)cc1C(F)(F)F [Example 214, (R)-N-(6-(6-amino-5-(trifluoromethyl)pyridin-3-yl)imidazo[1,2-a]pyridin-2-yl)-2-(pyrrolidin-3-yloxy)acetamide]
> 5.00 | > 6.00 | Nc1ncc(-c2ccc3nc(NC(=O)[C@H]4CCCCN4)cn3c2)cc1C(F)(F)F [Example 216, (R)-N-(6-(6-amino-5-(trifluoromethyl)pyridin-3-yl)imidazo[1,2-a]pyridin-2-yl)piperidine-2-carboxamide]
> 5.00 | > 6.00 | C[C@@H](N)C(=O)Nc1cn2nc(-c3cnc(N)c(C(F)(F)F)c3)ccc2n1 [Example 223, (R)-2-amino-N-(6-(6-amino-5-(trifluoromethyl)pyridin-3-yl)imidazo[1,2-b]pyridazin-2-yl)propanamide]
> 5.00 | > 6.00 | Nc1ncc(-c2ccc3nc(NC(=O)N4CC[C@H](O)C4)cn3c2)cc1C(F)(F)F [Example 224, (S)-N-(6-(6-amino-5-(trifluoromethyl)pyridin-3-yl)imidazo[1,2-a]pyridin-2-yl)-3-hydroxy-pyrrolidine-1-carboxamide]
> 5.00 | > 6.00 | Nc1ncc(-c2ccc3nc(NC(=O)c4cccc(Cl)c4)cn3c2)cc1C(F)(F)F [Example 225, N-(6-(6-amino-5-(trifluoromethyl)pyridin-3-yl)imidazo[1,2-a]pyridin-2-yl)-3-chlorobenzamide]
> 5.00 | > 6.00 | Nc1ncc(-c2ccc3nc(NC(=O)[C@@H]4CCN4)cn3c2)cc1C(F)(F)F [Example 228, (S)-N-(6-(6-amino-5-(trifluoromethyl)pyridin-3-yl)imidazo[1,2-a]pyridin-2-yl)azetidine-2-carboxamide]
> 5.00 | > 6.00 | Nc1ncc(-c2ccc3nc(NC(=O)N4CCC[C@H]4CO)cn3c2)cc1C(F)(F)F [Example 232, (S)-N-(6-(6-amino-5-(trifluoromethyl)pyridin-3-yl)imidazo[1,2-a]pyridin-2-yl)-2-(hydroxymethyl) pyrrolidine-1-carboxamide]

The remaining lines, values behind:

SMILES | pEC50 (A2780 cells) | pIC50 (PI3 K Alpha)
Nc1ncc(-c2ccc3nc(NC(=O)COC4CCNCC4)cn3c2)cc1C(F)(F)F [Example 200, N-(6-(6-amino-5-(trifluoromethyl)pyridin-3-yl)imidazo[1,2-a]pyridin-2-yl)-2-(piperidin-4-yloxy)acetamide] | > 5.00 | > 6.00
COCCOc1nc(-c2ccc3nc(NC(=O)CN4CCCCC4)cn3c2)cnc1N [Example 202, N-(6-(5-amino-6-(2-methoxyethoxy)pyrazin-2-yl)imidazo[1,2-a]pyridin-2-yl)-2-(piperidin-1-yl)acetamide] | > 5.00 | > 6.00
CC(=O)Nc1cn2cc(-c3cnc(N)c(OCC4CCN(C)CC4)n3)ccc2n1 [Example 209, N-(6-(5-amino-6-((1-methylpiperidin-4-yl)methoxy)pyrazin-2-yl)imidazo[1,2-a]pyridin-2-yl)acetamide] | > 5.00 | > 6.00
Nc1ncc(-c2ccc3nc(NC(=O)COCc4ccccc4)cn3n2)cc1C(F)(F)F [Example 217, N-(6-(6-amino-5-(trifluoromethyl)pyridin-3-yl)imidazo[1,2-b]pyridazin-2-yl)-2-(benzyloxy) acetamide] | > 5.00 | > 6.00
NC(=O)Nc1cn2cc(-c3cnc(N)c(C(F)(F)F)c3)ccc2n1 [Example 219, 1-(6-(6-amino-5-(trifluoromethyl)pyridin-3-yl)imidazo[1,2-a]pyridin-2-yl)urea] | > 5.00 | > 6.00
CCN1CCC(OCC(=O)Nc2cn3cc(-c4cnc(N)c(C(F)(F)F)c4)ccc3n2)CC1 [Example 221, N-(6-(6-amino-5-(trifluoromethyl)yl)imidazo[1,2-a]pyridin-2-yl)-2-(1-ethylpiperidin-4-yloxy)acetamide] | > 5.00 | > 6.00
CC(=O)Nc1cn2cc(-c3cnc(N)c(Oc4ccc(N5CCN(C(C)=O)CC5)cc4)n3)ccc2n1 [Example 222, N-(6-(6-(4-(4-acetylpiperazin-1-yl)phenoxy)-5-aminopyrazin-2-yl)imidazo[1,2-a]pyridin-2-yl)acetamide] | > 5.00 | > 6.00
CC(=O)Nc1cn2cc(-c3cnc(N)c(C)n3)ccc2n1 [Example 226, N-(6-(5-amino-6-methylpyrazin-2-yl)imidazo[1,2-a]pyridin-2-yl)acetamide] | > 5.00 | > 6.00
CCN1CC[C@@H](OCC(=O)Nc2cn3cc(-c4cnc(N)c(C(F)(F)F)c4)ccc3n2)C1 [Example 227, (R)-N-(6-(6-amino-5-(trifluoromethyl)pyridin-3-yl)imidazo[1,2-a]pyridin-2-yl)-2-(1-ethylpyrrolidn-3-yloxy)acetamide] | > 5.00 | > 6.00
Nc1ncc(-c2ccc3nc(NC(=O)C4CCN4)cn3c2)nc1OCC(F)(F)F (centres unmarked) [Example 229, N-(6-(5-amino-6-(2,2,2-trifluoroethoxy)pyrazin-2-yl)imidazo[1,2-a]pyridin-2-yl)azetidine-2-carboxamide] | > 5.00 | > 6.00
CC(C)C(=O)Nc1cn2cc(-c3cnc(N)c(OCC(F)(F)F)n3)ccc2n1 [Example 230, N-(6-(5-amino-6-(2,2,2-trifluoroethoxy)pyrazin-2-yl)imidazo[1,2-a]pyridin-2-yl)isobutyramide] | > 5.00 | > 6.00
CC(C)(C)OC(=O)NCCC(=O)Nc1cn2nc(-c3cnc(N)c(C(F)(F)F)c3)ccc2n1 [Example 231, tert-butyl 3-(6-(6-amino-5-(trifluoromethyl)pyridin-3-yl)imidazo[1,2-b]pyridazin-2-ylamino)-3-oxopropyl-carbamate] | > 5.00 | > 6.00
